Results: the NIST ThermoML archive (doi:10.1021/je700339f)

Assay: xn = mol fraction of the nth substance listed
Details: 298 K, Liquid

ClCCCl [1,2-dichloroethane] + CC(=O)N(C)C
mass density [kg/m3]
Details | x2 = 0.0977 | x2 = 0.2003 | x2 = 0.2988 | x2 = 0.4022 | x2 = 0.4999 | x2 = 0.6007 | x2 = 0.7008 | x2 = 0.7988 | x2 = 0.8997
100 kPa | 1210 | 1174.4 | 1141.3 | 1107.9 | 1077.4 | 1047.1 | 1018.1 | 990.5 | 963.2
500 kPa | 1210.4 | 1174.8 | 1141.6 | 1108.2 | 1077.7 | 1047.4 | 1018.4 | 990.8 | 963.4
1000 kPa | 1210.9 | 1175.2 | 1142.1 | 1108.7 | 1078 | 1047.7 | 1018.7 | 991.1 | 963.8
1500 kPa | 1211.3 | 1175.6 | 1142.5 | 1109 | 1078.4 | 1048.1 | 1019.1 | 991.4 | 964.1
2000 kPa | 1211.8 | 1176 | 1142.9 | 1109.5 | 1078.8 | 1048.4 | 1019.4 | 991.8 | 964.4
2500 kPa | 1212.2 | 1176.5 | 1143.3 | 1109.9 | 1079.2 | 1048.8 | 1019.8 | 992 | 964.7
3000 kPa | 1212.6 | 1176.9 | 1143.8 | 1110.2 | 1079.6 | 1049.1 | 1020.1 | 992.4 | 965
3500 kPa | 1213.2 | 1177.3 | 1144.1 | 1110.6 | 1080 | 1049.5 | 1020.5 | 992.7 | 965.3
4000 kPa | 1213.6 | 1177.7 | 1144.6 | 1111 | 1080.4 | 1049.8 | 1020.9 | 993.1 | 965.6
4500 kPa | 1214 | 1178.2 | 1144.8 | 1111.5 | 1080.8 | 1050.1 | 1021.1 | 993.4 | 965.9
5000 kPa | 1214.5 | 1178.6 | 1145.4 | 1111.8 | 1081.1 | 1050.5 | 1021.5 | 993.7 | 966.2
5500 kPa | 1215 | 1179 | 1145.8 | 1112.2 | 1081.5 | 1050.8 | 1021.8 | 994 | 966.5
6000 kPa | 1215.4 | 1179.5 | 1146.1 | 1112.6 | 1081.8 | 1051.2 | 1022.1 | 994.3 | 966.9
6500 kPa | 1215.9 | 1179.9 | 1146.6 | 1113 | 1082.2 | 1051.6 | 1022.5 | 994.7 | 967.2
7000 kPa | 1216.3 | 1180.3 | 1147 | 1113.4 | 1082.6 | 1052 | 1022.8 | 995 | 967.5
7500 kPa | 1216.7 | 1180.7 | 1147.4 | 1113.8 | 1083 | 1052.3 | 1023.1 | 995.3 | 967.8
8000 kPa | 1217.2 | 1181.2 | 1147.8 | 1114.1 | 1083.3 | 1052.7 | 1023.5 | 995.6 | 968.1
8500 kPa | 1217.7 | 1181.5 | 1148.2 | 1114.5 | 1083.7 | 1053 | 1023.8 | 996 | 968.4
9000 kPa | 1218.1 | 1182 | 1148.6 | 1114.9 | 1084 | 1053.4 | 1024.2 | 996.3 | 968.8
9500 kPa | 1218.5 | 1182.4 | 1149 | 1115.3 | 1084.4 | 1053.8 | 1024.4 | 996.6 | 969
10000 kPa | 1219 | 1182.9 | 1149.5 | 1115.7 | 1084.8 | 1054.2 | 1024.8 | 996.9 | 969.4
10500 kPa | 1219.4 | 1183.3 | 1149.8 | 1116.1 | 1085.2 | 1054.5 | 1025.2 | 997.2 | 969.6
11000 kPa | 1219.9 | 1183.7 | 1150.3 | 1116.5 | 1085.6 | 1054.8 | 1025.5 | 997.6 | 970
11500 kPa | 1220.3 | 1184.2 | 1150.7 | 1116.9 | 1085.9 | 1055.2 | 1025.8 | 997.9 | 970.3
11900 kPa | – | – | – | – | 1086.2 | – | – | – | –
12000 kPa | 1220.8 | 1184.6 | 1151.1 | 1117.2 | – | 1055.5 | 1026.1 | 998.2 | 970.6
12500 kPa | 1221.2 | 1185 | 1151.5 | 1117.6 | 1086.6 | 1055.8 | 1026.5 | 998.5 | 970.9
13000 kPa | 1221.6 | 1185.4 | 1151.9 | 1118 | 1087 | 1056.2 | 1026.8 | 998.8 | 971.2
13500 kPa | 1222 | 1185.8 | 1152.2 | 1118.4 | 1087.3 | 1056.5 | 1027.1 | 999.2 | 971.5
14000 kPa | 1222.4 | 1186.3 | 1152.6 | 1118.7 | 1087.7 | 1056.8 | 1027.4 | 999.4 | 971.7
14500 kPa | 1222.9 | 1186.7 | 1153 | 1119.1 | 1088 | 1057.1 | 1027.8 | 999.7 | 972
14900 kPa | 1223.2 | – | – | – | – | – | – | – | –
15000 kPa | – | 1187.1 | 1153.4 | 1119.4 | 1088.4 | 1057.5 | 1028 | 1000 | 972.3
15500 kPa | 1223.7 | 1187.4 | 1153.8 | 1119.8 | 1088.7 | 1057.8 | 1028.4 | 1000.4 | 972.6
15900 kPa | – | – | – | 1120.1 | – | – | – | – | –
16000 kPa | 1224.1 | 1187.8 | 1154.2 | – | 1089.1 | 1058.1 | 1028.7 | 1000.6 | 972.9
16400 kPa | 1224.5 | – | – | – | – | – | – | – | –
16500 kPa | – | 1188.2 | 1154.6 | 1120.5 | 1089.4 | 1058.4 | 1029 | 1001 | 973.2
16900 kPa | – | – | – | – | – | – | 1029.3 | – | –
17000 kPa | 1224.9 | 1188.6 | 1155 | 1120.9 | 1089.8 | 1058.8 | – | 1001.3 | 973.4
17500 kPa | 1225.4 | 1189.2 | 1155.3 | 1121.3 | 1090.1 | 1059.2 | 1029.7 | 1001.5 | 973.7
17900 kPa | – | – | – | 1121.5 | – | – | – | – | –
18000 kPa | 1225.8 | 1189.5 | 1155.7 | – | 1090.4 | 1059.5 | 1029.9 | 1001.8 | 974
18500 kPa | 1226.1 | 1189.8 | 1156.1 | 1122 | 1090.8 | 1059.8 | 1030.2 | 1002.1 | 974.3
19000 kPa | 1226.6 | 1190.3 | 1156.5 | 1122.4 | 1091.2 | 1060.2 | 1030.6 | 1002.5 | 974.7
19500 kPa | 1227 | 1190.6 | 1156.8 | 1122.7 | 1091.5 | 1060.5 | 1030.9 | 1002.7 | 975
20000 kPa | 1227.5 | – | 1157.2 | 1123.1 | 1091.9 | 1060.8 | 1031.2 | 1003 | –
20100 kPa | – | 1191.1 | – | – | – | – | – | – | 975.4
